Here are results for 7 molecules from EP0420021B1, “Hydrophilic laminated porous membranes and methods of preparing same” (ABBOTT LABORATORIES, priority 1989, dated 1991).

This series can be described thus: Capillary wicking time of laminated membrane strip (hydrophilicity). In kind it is physicochemical. The text has this:
The terms "hydrophilic" and "wettable" are frequently used herein and are used interchangeably as antonyms for "hydrophobic". A number of procedures can be used to measure hydrophilicity. Since the membranes of the preferred embodiment resemble thin layer chromatograhic strips, hydrophilicity is here measured as the rate at which the solvent front traverses the membrane strips. Darcy's law provides a rate by relating the distance the front travels to the time t. For a fixed distance, L, the relevant measurement is the time taken for the front to reach L. A relative measure of hydrophilicity is given by comparing the time or "wicking" rate of treated laminated membranes against the time or wicking rate of untreated laminated membranes. Although relative hydrophilicity is sufficient, for purposes of this invention a membrane is considered "hydrophilic" if the flow rate is such that the front traverses a length compatible with visualizing a result (ie., 2 - 10 cm) in a time consistent with rapid diagnostic assays, (ie., less than 10 minutes and preferably less than 5 minutes).
[…] At various time intervals (0, 7, 14, 21, 28, 56, 84, 112, etc days) the hydrophilicity of the membrane was tested by immersing a strip of laminated membrane 1-3 mm into a test solution (0.1M Tris pH 7.4, 0.9% NaCl, phenol red) and measuring the time required for the solution front to migrate a distance of 5.4 cm. A more hydrophilic membrane requires a shorter time for the liquid to move 5.4 cm.

[1] abbreviates: 0 days storage at 45° C, membrane treated with surfactant as example 4 Part E, laminated with Flexcon PM150C/V23/Poly SC9.
[2] abbreviates: 7 days storage at 45° C, surfactant-treated (example 4 Part E), Poly SC9 laminate.
Where [3] appears, read: 14 days storage at 45° C, surfactant-treated (example 4 Part E), Poly SC9 laminate.
Setting [4] is: 21 days storage at 45° C, surfactant-treated (example 4 Part E), Poly SC9 laminate.
The mark [5] stands for this setting: 28 days storage at 45° C, surfactant-treated (example 4 Part E), Poly SC9 laminate.

In the case of `CCCCCCCCCCS(=O)(=O)O` [decane sulfonic acid], the “Wicking Time to traverse 5.4 cm strip” value reads like this: under setting [1], 5.7 min; under setting [2], 6.4 min; under setting [3], 6.0 min; under setting [4], 6.3 min; under setting [5], 6.2 min.

On to `CCCCCS(=O)(=O)O` [pentane sulfonic acid], for which the “Wicking Time to traverse 5.4 cm strip” value runs as follows: under setting [1], 4.1 min; under setting [2], 5.5 min; under setting [3], 5.4 min; under setting [4], 5.6 min; under setting [5], 5.6 min.

As to `CCCCCCCS(=O)(=O)O` [heptane sulfonic acid], the “Wicking Time to traverse 5.4 cm strip” value is 4.9 min under setting [1]; 5.3 min under setting [2]; 5.2 min under setting [3]; 5.2 min under setting [4]; 5.3 min under setting [5].

For the molecule `CCCCCCCCCCCCCCCCO` [cetyl alcohol], the “membrane wicking rate as a result of the treatment” value (Part B: surfactant 0.1% w/v from isopropanol) is on record as “decreased”.

Regarding `CCCCCCCCCCCCOS(=O)(=O)[O-].[Na+]` [sodium dodecyl sulfate], the “Wicking Time to traverse 5.4 cm strip” value runs as follows: under setting [1], 6.3 min; under setting [2], 7.1 min; under setting [3], 7.0 min; under setting [4], 6.4 min; under setting [5], 6.0 min.

Consider `CCCCCCCCS(=O)(=O)O` [octane sulfonic acid], for which the “Wicking Time to traverse 5.4 cm strip” value reads like this: under setting [1], 5.1 min; under setting [2], 5.6 min; under setting [3], 5.4 min; under setting [4], 5.6 min; under setting [5], 5.7 min.

In the case of `CCCCCCCCCCCCS(=O)(=O)O` [dodecane sulfonic acid], the “Wicking Time to traverse 5.4 cm strip” value reads like this: under setting [1], 6.2 min; under setting [2], 6.4 min; under setting [3], 6.0 min; under setting [4], 6.3 min; under setting [5], 6.3 min.
